From ChEMBL document CHEMBL1136971, “Nascent structure-activity relationship study of a diastereomeric series of kappa opioid receptor antagonists derived from CJ-15,208” (Bioorg Med Chem Lett, 2009) come the findings set out here.

Square brackets hold non-standard residues; d marks the D form. Peptide text beside a SMILES is read from it.

The target in experiment [1] is T1, Mu-type opioid receptor (Homo sapiens, UniProt P35372). The experiment in a line: Displacement of [3H]diprenorphine from human cloned mu receptor by cell based assay. (In general: Loss of bound radioactivity is the signal in a displacement assay; it reports binding, not function.)
In experiment [2] the target is Delta-type opioid receptor (Homo sapiens, UniProt P41143). The experiment in a line: Displacement of [3H]diprenorphine from human cloned delta receptor by cell based assay.
In experiment [3] the target is T2, Kappa-type opioid receptor (Homo sapiens, UniProt P41145). The experiment in a line: Displacement of [3H]diprenorphine from human cloned kappa opioid receptor by cell based assay.
The next experiment is filed under the species Homo sapiens. As to the kind of experiment: Ratio of Ki for human cloned mu opioid receptor to Ki for human cloned kappa opioid receptor.
For experiment [4], the target named is T1, Mu-type opioid receptor. As to the kind of experiment: Antagonist activity at human cloned mu opioid receptor assessed as inhibition of 100 nM loperamide-stimulated GTPgammaS binding by cell based assay. It counts as functional. Background: GTPγS resists hydrolysis and so accumulates on activated G proteins.
The target of experiment [5] is T2, Kappa-type opioid receptor. The experiment in a line: Antagonist activity at human cloned kappa opioid receptor assessed as inhibition of 50 nM U50488H-stimulated GTPgammaS binding by cell based assay. In kind it is functional.
The nature of experiment [6]: Binding affinity to delta opioid receptor in guinea pig brain membrane. In kind it is cell membranes, Cavia porcellus.
Experiment [7] is described as follows: Antagonist activity at kappa opioid receptor in rabbit vas deferens assessed as reversal of asimadoline-suppressed electrically-stimulated twitch response. Conditions: Oryctolagus cuniculus. In kind it is functional, tissue-based.
Experiment [8] concerns the target Mu-type opioid receptor (Cavia porcellus, UniProt P97266). The experiment in a line: Binding affinity to mu opioid receptor in guinea pig brain membrane. In kind it is cell membranes.
For experiment [9], the target named is Kappa-type opioid receptor (Cavia porcellus, UniProt P41144). As to the kind of experiment: Binding affinity to kappa opioid receptor in guinea pig brain membrane. In kind it is cell membranes.
Kappa-type opioid receptor (Cavia porcellus, UniProt P41144), sequence (P41144 whole entry): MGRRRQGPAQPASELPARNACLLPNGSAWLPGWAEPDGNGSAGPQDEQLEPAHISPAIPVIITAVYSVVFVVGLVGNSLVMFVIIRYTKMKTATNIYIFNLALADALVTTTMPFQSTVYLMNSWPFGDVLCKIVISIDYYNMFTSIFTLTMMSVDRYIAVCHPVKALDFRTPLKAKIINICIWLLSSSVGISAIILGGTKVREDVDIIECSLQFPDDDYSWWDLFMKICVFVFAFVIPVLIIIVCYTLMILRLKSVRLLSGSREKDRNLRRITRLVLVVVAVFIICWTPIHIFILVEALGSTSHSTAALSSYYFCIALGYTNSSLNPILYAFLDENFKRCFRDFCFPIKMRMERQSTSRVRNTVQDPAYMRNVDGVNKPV

Delta-type opioid receptor, sequence (P41143 whole entry): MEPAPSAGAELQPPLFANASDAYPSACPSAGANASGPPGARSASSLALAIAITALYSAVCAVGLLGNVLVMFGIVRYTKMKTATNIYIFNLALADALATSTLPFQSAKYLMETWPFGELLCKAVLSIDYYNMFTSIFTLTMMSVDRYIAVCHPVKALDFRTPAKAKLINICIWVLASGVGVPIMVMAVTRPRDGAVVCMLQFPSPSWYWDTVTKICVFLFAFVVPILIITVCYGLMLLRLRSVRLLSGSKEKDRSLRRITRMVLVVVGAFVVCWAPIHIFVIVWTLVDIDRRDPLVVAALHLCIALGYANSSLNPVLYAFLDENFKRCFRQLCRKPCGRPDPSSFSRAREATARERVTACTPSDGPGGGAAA
T1 sequence (P35372 whole entry): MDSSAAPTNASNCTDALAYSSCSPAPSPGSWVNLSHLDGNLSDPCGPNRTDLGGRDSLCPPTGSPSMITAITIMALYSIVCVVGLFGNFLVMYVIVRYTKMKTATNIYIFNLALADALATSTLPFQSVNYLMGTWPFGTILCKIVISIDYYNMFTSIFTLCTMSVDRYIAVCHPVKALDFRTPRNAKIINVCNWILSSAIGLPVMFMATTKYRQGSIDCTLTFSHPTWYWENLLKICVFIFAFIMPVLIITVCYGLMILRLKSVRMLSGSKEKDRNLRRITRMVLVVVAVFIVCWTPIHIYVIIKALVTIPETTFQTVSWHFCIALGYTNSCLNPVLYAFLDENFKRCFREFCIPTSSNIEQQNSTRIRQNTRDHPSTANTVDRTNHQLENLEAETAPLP
T2 sequence (P41145 whole entry): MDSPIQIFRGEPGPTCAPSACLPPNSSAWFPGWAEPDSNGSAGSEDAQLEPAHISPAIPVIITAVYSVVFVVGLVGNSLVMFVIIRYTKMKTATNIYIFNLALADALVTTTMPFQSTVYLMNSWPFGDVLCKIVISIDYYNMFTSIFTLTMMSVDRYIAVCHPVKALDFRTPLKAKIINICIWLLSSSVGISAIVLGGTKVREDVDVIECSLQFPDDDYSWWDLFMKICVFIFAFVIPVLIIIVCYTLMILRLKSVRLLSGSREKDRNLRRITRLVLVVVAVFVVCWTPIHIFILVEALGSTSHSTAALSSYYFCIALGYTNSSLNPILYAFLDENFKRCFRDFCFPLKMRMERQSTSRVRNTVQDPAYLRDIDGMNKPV
Mu-type opioid receptor (Cavia porcellus, UniProt P97266), sequence (P97266 whole entry): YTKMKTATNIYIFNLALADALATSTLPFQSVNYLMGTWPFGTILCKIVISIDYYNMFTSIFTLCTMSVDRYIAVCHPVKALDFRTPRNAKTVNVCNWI

For orientation: Ki means a measure of affinity in units of concentration, obtained from inhibition or displacement. A high value points to a looser hold on the target. As to `CC(=O)N1CCC[C@@H]1C(=O)N[C@@H](Cc1ccccc1)C(=O)N[C@H](Cc1c[nH]c2ccccc12)C(=O)N[C@@H](Cc1ccccc1)C(N)=O`, the Ki on Mu-type opioid receptor [1] is 340 nM; in [2] it was over 1000 nM; in [3] it was over 1000 nM.
As for `CC(=O)N[C@@H](Cc1ccccc1)C(=O)N1CCC[C@@H]1C(=O)N[C@@H](Cc1ccccc1)C(=O)N[C@@H](Cc1c[nH]c2ccccc12)C(N)=O`, the Ki (at Mu-type opioid receptor [1]; in experiment [2]; in [3]) was over 1000 nM in each case.
With `O=C1N[C@H](Cc2c[nH]c3ccccc23)C(=O)N[C@@H](Cc2ccccc2)C(=O)N2CCC[C@@H]2C(=O)N[C@H]1Cc1ccc(F)cc1`, the results for the Ki (at Mu-type opioid receptor [1]; in [2]; in experiment [3]) were 48 nM, over 1000 nM and 21 nM, respectively. In the experiment filed under Homo sapiens, the Ratio Ki was 2.3.
For the compound `O=C1N[C@H](Cc2c[nH]c3ccccc23)C(=O)NCC(=O)N2CCC[C@@H]2C(=O)N[C@H]1Cc1ccccc1`, the figures for the Ki (on Mu-type opioid receptor [1]; in experiment [2]; in experiment [3]) were 770 nM, over 1000 nM and 270 nM, respectively. In addition, in the experiment listed under Homo sapiens, the Ratio Ki is 2.8.
For the compound `O=C1N[C@H](Cc2c[nH]c3ccccc23)C(=O)N[C@@H](Cc2ccccc2)C(=O)N2CCC[C@@H]2C(=O)N[C@H]1Cc1ccc(O)cc1`, the Ki is 120 nM at Mu-type opioid receptor [1], over 1000 nM in experiment [2] and 140 nM in experiment [3]. Besides, the Ratio Ki in the experiment listed under Homo sapiens is 0.85.
As for `CC(=O)N[C@H](Cc1c[nH]c2ccccc12)C(=O)N[C@@H](Cc1ccccc1)C(=O)N1CCC[C@@H]1C(=O)N[C@@H](Cc1ccccc1)C(N)=O`, the Ki (at Mu-type opioid receptor [1]; in experiment [2]; in [3]) was over 1000 nM each time.
For `CC(=O)N[C@@H](Cc1ccccc1)C(=O)N[C@@H](Cc1c[nH]c2ccccc12)C(=O)N[C@@H](Cc1ccccc1)C(=O)N1CCC[C@@H]1C(N)=O`, the Ki (on Mu-type opioid receptor [1]; in [2]; in [3]) was over 1000 nM each time.
As usually defined, the IC50 is the point on the concentration scale where inhibition reaches its midpoint. Take `C[C@@H]1NC(=O)[C@@H](Cc2c[nH]c3ccccc23)NC(=O)[C@H](Cc2ccccc2)NC(=O)[C@H]2CCCN2C1=O` (cyclo(A[dP]F[dW])): the Ki at Mu-type opioid receptor [1] is 22 nM; in experiment [2], over 1000 nM; in experiment [3], 5.2 nM. The IC50 on Mu-type opioid receptor [4] turned out to be 48 nM; in experiment [5], 5 nM. For the same compound, the Ratio Ki in the experiment listed under Homo sapiens came out at 4.2.
Regarding `COc1ccc(C[C@@H]2NC(=O)[C@@H](Cc3c[nH]c4ccccc34)NC(=O)[C@H](Cc3ccccc3)NC(=O)[C@H]3CCCN3C2=O)cc1`, the Ki at Mu-type opioid receptor [1] is 170 nM; in experiment [2], over 1000 nM; in experiment [3], 66 nM. The Ratio Ki in the experiment listed under Homo sapiens was found to be 2.6.
As for `O=C1N[C@H](Cc2c[nH]c3ccccc23)C(=O)N[C@@H](Cc2ccccc2)C(=O)N2CCC[C@@H]2C(=O)N[C@H]1Cc1cccc(O)c1`, the values for the Ki (at Mu-type opioid receptor [1]; in experiment [2]; in [3]) were 40 nM, 3400 nM and 20 nM, respectively. Moreover, the Ratio Ki in the experiment filed under Homo sapiens is 2.
Consider `CC(=O)N1CCC[C@@H]1C(=O)N[C@@H](Cc1ccccc1)C(=O)N[C@@H](Cc1c[nH]c2ccccc12)C(=O)N[C@@H](Cc1ccccc1)C(N)=O`, for which the Ki (on Mu-type opioid receptor [1]; in [2]; in experiment [3]) was over 1000 nM throughout.
For the compound `O=C1N[C@H](Cc2c[nH]c3ccccc23)C(=O)N[C@@H](Cc2cccc(O)c2)C(=O)N2CCC[C@@H]2C(=O)N[C@H]1Cc1ccccc1`, the Ki on Mu-type opioid receptor [1] is 37 nM; in experiment [2], 670 nM; in [3] it was 78 nM. Moreover, the Ratio Ki in the experiment filed under Homo sapiens was 0.47.
As to `C[C@H]1NC(=O)[C@H](Cc2ccccc2)NC(=O)[C@H]2CCCN2C(=O)[C@H](Cc2ccccc2)NC1=O`, the Ki (on Mu-type opioid receptor [1]; in experiment [2]; in experiment [3]) was over 1000 nM each time.
Take `COc1ccc(C[C@@H]2NC(=O)[C@H]3CCCN3C(=O)[C@H](Cc3ccccc3)NC(=O)[C@@H](Cc3c[nH]c4ccccc34)NC2=O)cc1`: the Ki at Mu-type opioid receptor [1] is 43 nM; in experiment [2], over 1000 nM; in experiment [3], 14 nM. Moreover, the Ratio Ki in the experiment listed under Homo sapiens amounted to 3.1.
For the compound `C[C@@H]1NC(=O)[C@H]2CCCN2C(=O)[C@H](Cc2ccccc2)NC(=O)[C@@H](Cc2c[nH]c3ccccc23)NC1=O` (cyclo(A[dW]F[dP])), the Ki is 2200 nM on Mu-type opioid receptor [1], over 1000 nM in experiment [2] and 1300 nM in experiment [3]. Moreover, the Ratio Ki in the experiment listed under Homo sapiens came out at 1.7.
For orientation: EC50 means the concentration that produces a half-maximal response. As for `O=C1N[C@@H](Cc2ccccc2)C(=O)N2CCC[C@@H]2C(=O)N[C@@H](Cc2ccccc2)C(=O)N[C@H]1Cc1c[nH]c2ccccc12` (cyclo(FWF[dP])), the results for the Ki (on Mu-type opioid receptor [1]; in experiment [2]; in experiment [3]) were 130 nM, 2000 nM and 29 nM, respectively. Further, the half-maximal inhibitory concentration (IC50) worked out at 2600 nM in [6]; 25 nM at Mu-type opioid receptor [4]; 260 nM at Mu-type opioid receptor [8]; 47 nM in experiment [9]; 440 nM in [5]. Also, the EC50 in experiment [7] amounted to 1300 nM. The Ratio Ki in the experiment listed under Homo sapiens was 4.5.
Turning to `CC(=O)n1cc(C[C@H](N)C(=O)N[C@@H](Cc2ccccc2)C(=O)N2CCC[C@@H]2C(=O)N[C@@H](Cc2ccccc2)C(N)=O)c2ccccc21`, the Ki (on Mu-type opioid receptor [1]; in experiment [2]; in experiment [3]) was over 1000 nM each time.
With `O=C1N[C@H](Cc2c[nH]c3ccccc23)C(=O)N[C@@H](Cc2ccc(F)cc2)C(=O)N2CCC[C@@H]2C(=O)N[C@H]1Cc1ccccc1`, the Ki was 210 nM at Mu-type opioid receptor [1], over 1000 nM in [2] and 28 nM in [3]. The Ratio Ki in the experiment listed under Homo sapiens worked out at 7.5.
As to `O=C1N[C@H](Cc2c[nH]c3ccccc23)C(=O)N[C@@H](Cc2ccccc2)C(=O)N2CCC[C@@H]2C(=O)N[C@H]1Cc1ccccc1` (cyclo(F[dP]F[dW])), the Ki at Mu-type opioid receptor [1] is 30 nM; in [2], over 1000 nM; in experiment [3] it was 3.8 nM. Also, the 50% inhibitory concentration (IC50) worked out at 21 nM at Mu-type opioid receptor [4] and 140 nM in experiment [5]. In addition, the Ratio Ki in the experiment listed under Homo sapiens turned out to be 7.9.
Turning to `O=C1N[C@H](Cc2c[nH]c3ccccc23)C(=O)N[C@@H](Cc2ccc(O)cc2)C(=O)N2CCC[C@@H]2C(=O)N[C@H]1Cc1ccccc1`, the values for the Ki in [2] and in experiment [3] were over 1000 nM and 220 nM, respectively.
For `CC(=O)N[C@@H](Cc1ccccc1)C(=O)N[C@H](Cc1c[nH]c2ccccc12)C(=O)N[C@@H](Cc1ccccc1)C(=O)N1CCC[C@@H]1C(N)=O`, the Ki at Mu-type opioid receptor [1] was 360 nM; in experiment [2] it was over 1000 nM; in experiment [3] it was over 1000 nM.
Regarding `CC(=O)N[C@@H](Cc1ccccc1)C(=O)N1CCC[C@@H]1C(=O)N[C@@H](Cc1ccccc1)C(=O)N[C@H](Cc1c[nH]c2ccccc12)C(N)=O`, the Ki (on Mu-type opioid receptor [1]; in experiment [2]; in experiment [3]) was over 1000 nM each time.
